Measured values published in patent publication US5096925A, “N-substituted butyramide derivatives” (Ciba-Geigy Corporation, priority 1990, dated 1992).

How the values were obtained:
enkephalinase [1] = assay: in vivo potentiation of the analgesic effect of D-Ala^2-Met^5-enkephalinamide (enkephalinase inhibitory activity in vivo); parameters: species or system mouse; settings: s.c.
Protocol: (§1) The enkephalinase inhibitory activity can be determined in vivo, e.g. by measuring the potentiation of the analgesic activity of intracerebrally administered D-Ala^2 -met^5 -enkephalinamide or met-enkephalin in mice. The enkephalinase inhibitory activity is also determined in vivo by measuring the increase in endogenous brain enkephalin levels, or by direct measurement of striatum enkephalinase activity in mice.

enkephalinase [2] = target: T1, enkephalinase (Rattus norvegicus, UniProt P07861); assay: in vitro inhibition of enkephalinase (3H-Tyr-gly-gly generation from 3H-Leu-enkephalin, synaptic membranes from rat striatum); assay type: biochemical; settings: rat striatum synaptic membrane preparation, pH 6-5, 15 minutes at 30° C., 10^-6 M Bestatin
T1 construct: synaptic membrane preparation from rat striatum; from tissue; host or cells: rat striatum, synaptic membrane preparation
T1 sequence (P07861 1-750): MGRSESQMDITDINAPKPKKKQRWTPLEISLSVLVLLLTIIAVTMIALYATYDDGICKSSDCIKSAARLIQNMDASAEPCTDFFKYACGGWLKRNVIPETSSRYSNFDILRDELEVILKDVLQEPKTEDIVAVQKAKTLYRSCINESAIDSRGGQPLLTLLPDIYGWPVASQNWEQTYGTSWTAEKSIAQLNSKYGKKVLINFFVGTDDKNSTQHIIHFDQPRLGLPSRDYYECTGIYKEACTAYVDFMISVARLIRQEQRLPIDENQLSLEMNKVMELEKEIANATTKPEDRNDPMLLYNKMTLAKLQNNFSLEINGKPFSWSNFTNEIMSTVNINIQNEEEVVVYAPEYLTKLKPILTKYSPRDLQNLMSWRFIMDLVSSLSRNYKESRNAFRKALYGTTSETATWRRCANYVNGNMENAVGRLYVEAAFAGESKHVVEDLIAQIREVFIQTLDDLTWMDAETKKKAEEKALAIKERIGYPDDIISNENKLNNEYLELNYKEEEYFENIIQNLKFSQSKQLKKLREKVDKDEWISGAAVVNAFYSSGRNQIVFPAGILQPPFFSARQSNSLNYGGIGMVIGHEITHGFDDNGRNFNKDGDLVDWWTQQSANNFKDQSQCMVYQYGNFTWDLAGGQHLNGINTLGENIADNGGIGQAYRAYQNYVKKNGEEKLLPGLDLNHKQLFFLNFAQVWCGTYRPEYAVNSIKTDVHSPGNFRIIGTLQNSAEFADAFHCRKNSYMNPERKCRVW
Protocol: The enkephalinane inhibitory activity is determined in vitro by an adaptation of the method of Alstein et al. as described in Life Sciences 28, 185 (1981), as follows:
A mixture of a solution of the test compound in distilled water or distilled water and ethanol diluted with pH 6-5 buffer and of a synaptic membrane preparation from rat striatum is incubated at pH 6-5 with ^3 H-Leu-enkephalin for 15 minutes at 30° C., in the presence of 10^-6 M Bestatin (to inhibit aminopeptidase activity). The reaction is stopped by the addition of 30% acetic acid and the reaction product ^3 H-Tyr-gly-gly is separated from unreacted ^3 H-Leu-enkephalin on a Porapak O column followed by a Cu^++ -chelex column. The ^3 H-Tyr-gly-gly is counted by liquid scintillation. The amount of ^3 H-Tyr-gly-gly generated in the presence of test compound as compared to control is then calculated. An IC50 value representing the concentration of test compound required for 50% inhibition of ^3 H-Tyr-gly-gly generation is then determined graphically.

[3] = hot plate test for analgesia in the mouse (mean response latency); assay type: in vivo; settings: for dose that increases the mean response latency in the hot plate test: mice, intracerebroventricular administration
Excerpt: The analgesic activity is demonstrable by potentiation of the analgesic effects of enkephalin and derivatives thereof, and by classical analgesic tests, such as the phenyl-p-benzoquinone induced writing test [J. Pharmacol. Exp. Therap. 125, 237 (1959)] and the hot plate test in the mouse [J. Pharmaol. Exp. Therap. 107, 385 (1953)].
The analgesic activity can be measured by the hot-plate test method in the mouse as follows and essentially as described in J. Pharmacol. Exp. Therap. 107, 385 (1953).
The compound is administered intravenously or intracerebroventricularly 15 minutes prior to the measurement of the response latency. Male CF, (Charles River) mice (20 g) are allowed food and water ad libitum up to the time of testing. The hot plate test for analgesia utilizes an apparatus with an electrically heated, thermostatically controlled copper plate (Analgesia Meter). A Plexiglas cylinder, 25.5 cm×16 cm (inner diameter) and open at both ends, confines the mice to the central area of the hot plate. The surface temperature is maintained at 55°±0.5° C. Response latency is recorded as the time (seconds) from contact with the hot plate until a jump occurs or at 240 seconds if no response occurs within this time. Animals are individually tested at 15 minutes following intravenous or intracerebroventricular (ICV) injection. Intracerebroventricular injections into the lateral ventricle are carried out according to the method of Haley and McCormick, as described in Brit. J. Pharmacol. 12; 12, 1957.
The mean response latency and standard error are calculated. Significance is determined using Student's unpaired t-test, 2-tailed comparison.

enkephalinase [4] = assay: in vivo potentiation of the analgesic effect of met-enkephalin (enkephalinase inhibitory activity in vivo); parameters: species or system mouse; settings: met-enkephalin (20 ug), intracerebroventricular administration
Protocol: as §1

Compound | IC50 (enkephalinase [2]) | dose that increases the mean response latency in the hot plate test [3] | further results
CC1(C)O[C@@H]2[C@@H](COC(=O)CCNC(=O)[C@H](Cc3ccccc3)C[C@@H](Cc3ccccc3)C(=O)O)OC(=O)[C@@H]2O1 [17/6, 2,3-O-isopropylidene-D-ribono-(1,4-lactone)-5-yl N-(2S,4S-dibenzyl-4-carboxybutyryl)-3-aminopropionate] |  |  | dose that potentiates the analgesic effect of D-Ala^2-Met^5-enkephalinamide (enkephalinase [1]): 30 mg/kg
O=C(O)CCNC(=O)[C@H](Cc1ccccc1)C[C@@H](Cc1ccccc1)C(=O)O [N-(2S,4S-dibenzyl-4-carboxybutyryl)-3-aminopropionic acid] | ~8 nM |  | 
O=C(O)CCNC(=O)[C@@H](Cc1ccccc1)C[C@H](Cc1ccccc1)C(=O)O (relative stereo) [N-[(R*,R*)-2,4-dibenzyl-4-carboxybutyryl]-3-aminopropionic acid] | ~20 nM |  | 
O=C(O)CCCNC(=O)[C@@H](Cc1ccccc1)C[C@H](Cc1ccccc1)C(=O)O (relative stereo) [N-[(R*,R*)-2,4-dibenzyl-4-carboxybutyryl]-4-aminobutyric acid] | ~20 nM | about 0.1 ug | 
CC1(C)O[C@H]2O[C@H]([C@H]3COC(C)(C)O3)[C@H](OC(=O)CCNC(=O)[C@H](Cc3ccccc3)C[C@@H](Cc3ccccc3)C(=O)O)[C@H]2O1 [Example 17/10, 1,2:5,6-di-O-isopropylidene-D-glucofuranos-3-yl N-(2S,4S-dibenzyl-4-carboxybutyryl)-3-aminopropionate] |  |  | minimal effective dose ([3]; iv, 0.25 h, mouse, effective at the dose "and lower"): ≤ 30 mg/kg
CCOC(=O)[C@@H](Cc1ccccc1)C[C@H](Cc1ccccc1)C(=O)NCCC(=O)O (relative stereo) [N-[4-ethoxycarbonyl-(R*,R*)-2,4-dibenzylbutyryl]-3-aminopropionic acid] |  | ~0.03 µg | dose that potentiates the analgesic effect of met-enkephalin (enkephalinase [4]): about 0.01 ug
